Data reported in US20110020312A1, “METHODS FOR TREATMENT OF METABOLIC DISORDERS USING EPIMETABOLIC SHIFTERS, MULTIDIMENSIONAL INTRACELLULAR MOLECULES, OR ENVIRONMENTAL INFLUENCERS” (priority 2009, published 2011).

Test system: Pyruvate Kinase M2 (PKM2)
Assay: Western blot, Pyruvate Kinase M2 levels
Format: cell-based, human
Description: The samples were processed and run on a 4-12% Bis-Tris Novex NuPAGE gel as described above. The gels were run, transferred and stained essentially as described above.
The lactate dehydrogenase blots were stripped by incubating for 30 minutes with methanol, followed by two 10 minute washes with TBS-T, then 30 minutes of incubation with Stripping buffer at 50 deg C., and followed by two washes with 100 ml or more of TBS-T for 30′ each. The 2 blots were scanned in laser scanner to check for complete stripping. The blots were activated with methanol for 5 seconds, washed with water for 5 minutes, and TBST for 15 minutes. The blots were blocked for 1 hour with 5% blocking reagent in TBS-T at room temperature and then washed 3 times with TBS-T (1×-15′; 2×5′ each) and probed with the rabbit polyclonal antibody for Pyruvate Kinase M2 in 5% BSA (NOVUS BIOLOGICALS catalog #H00005315-DO1P) at 1:500 dilution overnight at 4 deg C. with shaking. After the overnight incubation with primary antibody for Pyruvate Kinase M2, the membranes were washed 3 times with TBS-T (1×-15′; 2×5′ each) and probed with the secondary antibody (antirabbit; 1:10,000 dilution) for 1 h on the orbital tilting shaker at room temperature. After 1 h of incubation with secondary antibodies, the blots were washed 3 times with TBS-T (1×-15′; 2×5′ each) and then incubated with ECF reagent for 5 minutes and then each blot scanned with 5100 Fuji Laser scanner at 25 uM resolution, 16 bit, green laser, at 400V and at 500 V.
The HASMC samples were processed and the gels were run, transferred, stained and scanned essentially as described above.
The above blots were stripped by incubating for 30 minutes with methanol, followed by two 10 minute washes with TBS-T, then 30 minutes of incubation with Stripping buffer at 50 deg C., and followed by two washes with 100 ml or more of TBS-T for 30′ each. The blots were scanned in laser scanner to check for complete stripping. The blots were activated with methanol for 5 seconds, washed with water for 5 minutes, and TBST for 15 minutes. The blots were blocked for 1 hour with 5% blocking reagent in TBS-T at room temperature and then washed 3 times with TBS-T (1×-15′; 2×5′ each) and probed with the primary antibody for PKM2, SDHB or SDHC in 5% BSA in TBS-T by incubation overnight at 4 deg C. with gentle shaking. The primary antibody for SDHC (ABNOVA H00006391-MO2; antimouse) was at 1:500 dilution. The primary antibody for SDHB was from Abcam ab4714-200; antimouse; at 1:1000 dilution. The primary antibody for Pyruvate Kinase M2 (PKM2) was from Novus Biologicals H00005315-D0IP; antirabbit; at 1:500 dilution. After incubation with primary antibodies, the membranes were washed 3 times with TBS-T (1×-15′; 2×5′ each) and probed with the secondary antibody (SDHB & C antimouse; and PKM2 antirabbit; 1:10,000 dilution) for 1 h on the orbital tilting shaker at room temperature. After 1 h of incubation, the blots were washed 3 times with TBS-T (1×-15′; 2×5′ each) and incubated with ECF reagent for 5 minutes and then each blot scanned with 5100 Fuji Laser scanner at 25 uM resolution, 16 bit, green laser, at 400V and at 500 V.

COC1=C(OC)C(=O)C(C/C=C(\C)CC/C=C(\C)CC/C=C(\C)CC/C=C(\C)CC/C=C(\C)CC/C=C(\C)CC/C=C(\C)CC/C=C(\C)CC/C=C(\C)CCC=C(C)C)=C(C)C1=O [Q10, Coenzyme Q10]
Pyruvate Kinase Muscle form 2 Upper Band Normalized Intensity (HASMC, 5g48-50): 811
Pyruvate Kinase Muscle form 2 Upper Band Normalized Intensity (HASMC, 5g48-100): 611
Pyruvate Kinase Muscle form 2 Upper Band Normalized Intensity (HASMC, 22G24-50): 477
Pyruvate Kinase Muscle form 2 Upper Band Normalized Intensity (HASMC, 22G24-100): 701
Pyruvate Kinase Muscle form 2 Upper Band Normalized Intensity (HASMC, 22G48-50): 595
Pyruvate Kinase Muscle form 2 Upper Band Normalized Intensity (HASMC, 22G48-100): 496
Pyruvate Kinase Muscle form 2 Upper Band Normalized Volume (HepG2, 5g-50, 24 h): 29269
Pyruvate Kinase Muscle form 2 Upper Band Normalized Intensity (HepG2, 5g-50, 48 h): 303
Pyruvate Kinase Muscle form 2 Upper Band Normalized Volume (HepG2, 5g-100, 24 h): 18307
Pyruvate Kinase Muscle form 2 Upper Band Normalized Intensity (HepG2, 5g-100, 48 h): 354
Pyruvate Kinase Muscle form 2 Upper Band Normalized Volume (HepG2, 22G-50, 24 h): 22294
Pyruvate Kinase Muscle form 2 Upper Band Normalized Intensity (HepG2, 22G-50, 48 h): 562
Pyruvate Kinase Muscle form 2 Upper Band Normalized Volume (HepG2, 22G-100, 24 h): 19560
Pyruvate Kinase Muscle form 2 Upper Band Normalized Intensity (HepG2, 22G-100, 48 h): 601
PKM2 expression (cancer cells tested): dose-dependent decrease
PKM2 expression (normal cells): no major changes
